Earlier results, collected in US5547668A, “Conjugates of folate anti-effector cell antibodies” (The Board of Trustees of The University of Illinois, priority 1995, dated 1996).

Tested on: FR

Row | Compound | affinity for the FR
1 | C#CCN(Cc1ccc2nc(N)[nH]c(=O)c2c1)c1ccc(C(=O)N[C@@H](CCC(=O)O)C(=O)O)cc1 [CB3717, N^10-propargyl-5,8-dideazafolic acid] | bind with high affinity
2 | CN(Cc1cnc2nc(N)nc(N)c2n1)c1ccc(C(=O)N[C@@H](CCC(=O)O)C(=O)O)cc1 [MTX, methotrexate] | does not bind to MTX with high affinity
3 | C#CCN(Cc1ccc2nc(C)[nH]c(=O)c2c1)c1ccc(C(=O)N[C@@H](CCC(=O)O)C(=O)O)cc1 [ICI-198,583, 2-deamino-2-methyl-N^10-propargyl-5,8-dideazafolic acid] | bind with high affinity
